Source: patent US20220213144A1, “HALOGENATED ANTIMICROBIAL PEPTOIDS” (priority 2019, published 2022)
≈ marks a conversion by molar mass, not a printed value. Where two headings read alike, the source gives them in different places. Square brackets hold non-standard residues; d marks the D form. Peptide text beside a SMILES is read from it. N(4-Br-benzyl)Gly = O=C(O)CNCc1ccc(Br)cc1; Nspe = C[C@H](NCC(=O)O)c1ccccc1; Nphe = O=C(O)CNCc1ccccc1; Nlys = NCCCCNCC(=O)O

Key:
[1] = system: S. aureus and S. epidermidis; assay type: cell-based, Staphylococcus aureus, Staphylococcus epidermidis; conditions: span over the Gram-positive strains
Description: (§1) Bacterial growth inhibition was determined by using broth microdilution according to the Clinical Laboratory Standards Institute. The antibacterial activity of peptoids was tested against S. aureus ATCC 25923, ATCC29213, and methicillin resistant S. aureus USA 300, methicillin resistant S. epidermidis ATCC 51625, a biofilm producing methicillin resistant S. epidermidis […], P. aeruginosa Pa01 (H103), and E. coli ATCC 25922. Bacteria, grown on agar plates for 18 hours at 37° C., were diluted to ˜1×10^8 CFU/mL in Mueller-Hinton Broth II (MHB II). Twofold serial dilutions of peptoids in MHB II were inoculated with the bacteria to achieve a final concentration of 5×10^5 CFU/mL in polypropylene 96 U-well microtiter plates (Corning™ 3897; ThermoFisher Scientific, Roskilde), followed by incubation at 37° C. in ambient air for 18 hours. The MIC values were determined as the lowest concentration showing no visible bacterial growth. Experiments were performed twice (in technical triplicates) on different days.

[2] = Small angle X-ray scattering, critical aggregation concentration from fit; assay type: physicochemical; conditions: Table 2; 10-mers, SAXS at ESRF, model fit
Description: SAXS experiments of the 10-mer peptoids were performed on the automated BM29 bioSAXS beamline at the European Synchrotron Radiation Facility (ESRF) in Grenoble, France. The data was obtained using an energy of 12.5 keV and a detector distance of 2.87 m, covering a q range (q=4π sin(θ/2)/λ), where θ is the scattering angle and λ is the X-ray wavelength) of about 0.0047 Å-1 to 0.5 Å-1. The data set was calibrated to an absolute intensity scale using water as a primary standard. Samples (40 μL) were run through a capillary using the flow mode of the automated sample changer. SAXS data was collected in ten successive frames of 0.5 s each to monitor radiation damage, and the data reduction was done using the standard tool at BM29.
The SAXS experiments on the fully iodinated 6-, 8-, and 12-mers to determine the CAC of the compounds were performed using a Bruker NANOSTAR equipped with a microfocus X-ray source (IμS Cu, Incoatec, Germany) and a VANTEC-2000 detector. Raw scattering data was calibrated to absolute intensity scale using water as a primary standard and radially averaged in order to obtain the 1D scattered intensity profile as a function of the scattering vector, with a wavelength of 1.54 Å.
where fagg is the fraction of peptoid chains aggregated in bundles, allowing for calculation of a CAC from ϕCAC=ϕ−(fagg*ϕ).

[3] = system: methicillin-resistant S. aureus USA 300; assay type: cell-based, Staphylococcus aureus
Description: as §1

S. aureus ATCC 25923 = assay type: cell-based, Staphylococcus aureus; conditions: S. aureus ATCC 25923
Description: as §1

[4] = Cell viability assay (MTS/PMS), HaCaT cell line; assay type: cell-based; conditions: human, text b151, read-out: IC50 (cytotoxicity, HaCaT)
Description: An immortalized human keratinocytes (HaCaT) cell line (Gift from David Gram Naym at Bispebjerg Hospital) was cultured to ˜90% confluence after 21-25 h of growth under standard conditions (5% CO2/95% 02 at 37° C.). Cells were cultured in Dulbecco's Modified Eagle's Medium supplemented with 10% (v/v) fetal bovine serum (FBS). All culture media were supplemented with penicillin (100 IU/mL) and streptomycin (100 μg/mL). All cell media and supplements were obtained from Sigma-Aldrich (St. Louis, Mo., United States). The 96-well plates were obtained from Corning Costar (Sigma-Aldrich, Brondby, Denmark).
Cell viability assessment was performed on cell monolayers grown to ˜90% confluence in 96-well plates using the MTS/PMS assay as previously described. Briefly, the adhered cells were washed with 37° C. PBS solution (ThermoFisher Scientific, Roskilde) and exposed for 1 h at 37° C. to 100 μL of peptoid dissolved in the medium also used for culturing of the cell line (at concentrations in the range 0-1000 μg/mL). The cells were then washed twice with 37° C. PBS. […] A plate reader (SpectraMax i3X; Molecular devices, San Jose, Calif.) was used to measure the absorbance at 492 nm. The relative viability was calculated by using 0.2% (w/v) sodium dodecyl sulfate (SDS) as the positive control, while cells exposed to medium without test compound were used as the negative control. […]

[5] = in words; cited from earlier work
E. coli ATCC 25922 = assay type: cell-based, Escherichia coli
Description: as §1

[6] = intraperitoneal; Czyzewski et al. 2016; cited from earlier work
[7] = system: methicillin-restant S. epidermidis ET-024; assay type: cell-based, Staphylococcus epidermidis; conditions: S. epidermidis ET-024
Description: as §1

[8] = system: methicillin-restant S. epidermidis ATCC 51625; assay type: cell-based, Staphylococcus epidermidis; conditions: S. epidermidis ATCC 51625
Description: as §1

P. aeruginosa PA01 = assay type: cell-based, Pseudomonas aeruginosa; conditions: P. aeruginosa PA01 H103
Description: as §1

Row | SMILES | MICs [1] [µg/mL] | CAC [2] [mg/mL] | MIC MRSA^b ([3]; Table 4) [µg/mL] | MIC MRSA^b ([3]; Table 5) [µg/mL] | MIC SA^a (S. aureus ATCC 25923; Table 4) [µg/mL] | MIC SA^a (S. aureus ATCC 25923; Table 5) [µg/mL] | IC50 at 1 h [4] [µg/mL] | cytotoxicity in vitro [5] | MIC EC^e (E. coli ATCC 25922; Table 4) [µg/mL] | MIC EC^e (E. coli ATCC 25922; Table 5) [µg/mL] | tolerability intraperitoneally in vivo [6] | MIC MRSE^c ([7]; Table 4) [µg/mL] | MIC MRSE^c ([7]; Table 5) [µg/mL] | MIC MRSE^d ([8]; Table 4) [µg/mL] | MIC MRSE^d ([8]; Table 5) [µg/mL] | MIC PA^f (P. aeruginosa PA01; Table 4) [µg/mL] | MIC PA^f (P. aeruginosa PA01; Table 5) [µg/mL]
1 | NCCCCNCC(=O)N(CC(=O)N(CCCCN)CC(=O)N(CC(=O)N(CCCCN)CC(=O)N(CC(=O)N(CCCCN)CC(=O)N(CC(=O)N(CCCCN)CC(=O)N(CC(N)=O)Cc1ccc(Br)cc1)Cc1ccccc1)Cc1ccc(Br)cc1)Cc1ccccc1)Cc1ccc(Br)cc1 [Compound 26] (H-[Nlys][N(4-Br-benzyl)Gly][Nlys][Nphe][Nlys][N(4-Br-benzyl)Gly][Nlys][Nphe][Nlys][N(4-Br-benzyl)Gly]-NH2) | 1 to 8 | >5 |  |  |  |  |  |  |  |  |  |  |  |  |  |  | 
2 | C[C@@H](c1ccccc1)N(CC(N)=O)C(=O)CN(C(=O)CN(CCCCN)C(=O)CN(C(=O)CN(C(=O)CN(CCCCN)C(=O)CN(C(=O)CN(C(=O)CN(CCCCN)C(=O)CN(C(=O)CN(C(=O)CNCCCCN)[C@@H](C)c1ccccc1)[C@@H](C)c1ccccc1)[C@@H](C)c1ccccc1)[C@@H](C)c1ccccc1)[C@@H](C)c1ccccc1)[C@@H](C)c1ccccc1)[C@@H](C)c1ccccc1 [Peptoid 1, H-(NLys-Nspe-Nspe)4-NH2] (H-[Nlys][Nspe][Nspe][Nlys][Nspe][Nspe][Nlys][Nspe][Nspe][Nlys][Nspe][Nspe]-NH2) |  |  | 8 (≈ 4.4 µM) | 8 (≈ 4.4 µM) | 8 (≈ 4.4 µM) | 8 (≈ 4.4 µM) | 35 (≈ 19.2 µM) | relatively high cytotoxicity | 8 (≈ 4.4 µM) | 8 (≈ 4.4 µM) | reasonably well tolerated | 4 (≈ 2.2 µM) | 4 (≈ 2.2 µM) | 8 (≈ 4.4 µM) | 8 (≈ 4.4 µM) | 16 (≈ 8.79 µM) | 16 (≈ 8.79 µM)
